Laboratory results as given in patent US20020156236A1, “Binding sites for phosphotyrosine binding domains” (priority 1995, published 2002).
pIC50: −log10 of the molar value. Where a SMILES comes first, the peptide text is derived from it. Where no end group is shown, it is not given here.

Columns and labels:
[1] = molecular target: T1, PTB domain/c-erbB2 binding (GST-PTB domain of SHC; c-erbB2 from SKBR3 lysate) (Homo sapiens, UniProt P29353); assay: biochemical
T1 construct: GST-PTB domain fusion proteins were expressed from recombinant baculovirus in sf9 cells; made in house; host or cells: Sf9 cells (recombinant baculovirus) for GST-PTB; c-erbB2 endogenous in SKBR3 cell lysate
T1 sequence (P29353 156-341): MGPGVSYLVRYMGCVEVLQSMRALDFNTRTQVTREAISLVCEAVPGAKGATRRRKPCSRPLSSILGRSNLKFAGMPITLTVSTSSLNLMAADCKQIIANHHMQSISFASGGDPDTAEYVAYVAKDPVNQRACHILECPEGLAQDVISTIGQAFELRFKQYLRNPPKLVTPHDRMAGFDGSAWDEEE

[2] = molecular target: T2, SHC PTB domain / pp145 derived from activated B cells (Homo sapiens, UniProt P29353); assay: Blocking of in vitro association of SHC PTB domain with pp145; assay type: binding
T2 sequence (P29353 156-339 limits assumed): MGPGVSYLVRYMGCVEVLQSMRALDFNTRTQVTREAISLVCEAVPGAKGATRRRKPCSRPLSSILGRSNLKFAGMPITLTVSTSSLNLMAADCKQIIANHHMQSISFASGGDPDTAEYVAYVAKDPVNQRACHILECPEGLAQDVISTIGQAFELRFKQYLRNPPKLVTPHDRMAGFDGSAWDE
Source text: (§1) The PTB domain was immunoprecipitated and the washed pellet assayed for the presence of bound peptide with streptavidin-coupled alkaline phosphatase. […] See, Kavanaugh and Williams, supra.

[3] = molecular target: T3, GST-PTB domain fusion protein (Homo sapiens, UniProt P29353); assay: Direct binding of biotinylated peptides to PTB domain (streptavidin-coupled alkaline phosphatase detection); details: 500 nM biotinylated peptide, FIG. 3
T3 construct: 100 ng of GST-PTB domain or GST-SH2 domain fusion protein were incubated; made in house; host or cells: Sf9 cells (recombinant baculovirus)
T3 sequence (P29353 156-339 limits assumed): T2 sequence (P29353 156-339 limits assumed)
Method: as §1
Peptides were biotinylated during synthesis and HPLC purified. 100 ng of GST-PTB domain or GST-SH2 domain fusion protein were incubated in 1×hybridization buffer with 500 nM biotinylated phosphopeptide for 1 hour at 4° C., immunoprecipitated as described in Example 2, above, washed once, and the pellets incubated with 0.25 units of streptavidin-alkaline phosphatase for 5 minutes at 4° C. The pellets were washed twice more, incubated for 3 minutes at room temperature with 1 mg/ml p-nitrophenylphosphate in 100 mM glycine, pH 10.1, 1 mM ZnCl2 and 1 mM MgCl2. The absorbance was measured at 405 nm.

[4] = molecular target: T4, SH2 domain of SHC (GST-SH2 domain fusion protein) (Homo sapiens, UniProt P29353); assay: Direct binding of biotinylated peptides to SH2 domain (streptavidin-coupled alkaline phosphatase detection); details: 500 nM biotinylated peptide, FIG. 3
T4 construct: 100 ng of GST-PTB domain or GST-SH2 domain fusion protein were incubated
T4 sequence (P29353 488-579 limits assumed): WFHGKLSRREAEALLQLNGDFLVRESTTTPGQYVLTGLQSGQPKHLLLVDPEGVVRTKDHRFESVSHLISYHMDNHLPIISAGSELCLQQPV

[5] = Affinity (IC50), Table 3, ability to block PTB domain/c-erbB2 binding

With `CC(C)C[C@H](NC(=O)[C@H](CC(N)=O)NC(=O)[C@H](CC(=O)O)NC(=O)[C@H](Cc1ccccc1)NC(=O)[C@H](C)NC(=O)[C@@H]1CCCN1C(=O)[C@H](CO)NC(=O)[C@H](Cc1ccccc1)NC(=O)[C@H](C)NC(=O)[C@@H]1CCCN1)C(=O)N[C@@H](COP(=O)(O)O)C(=O)N[C@@H](COP(=O)(O)O)C(=O)N[C@@H](Cc1c[nH]c2ccccc12)C(=O)N[C@@H](CC(=O)O)C(=O)N[C@@H](CCC(N)=O)C(=O)N[C@@H](CC(N)=O)C(=O)N[C@@H](CO)C(=O)N[C@@H](CO)C(=O)N[C@@H](CCC(=O)O)C(=O)N[C@@H](CCC(N)=O)C(=O)NCC(=O)O` [PAFSPAFDNL (pS) (pS) WDQNSSEQG] (HELM PEPTIDE1{P.A.F.S.P.A.F.D.N.L.[O=C([C@H](COP(=O)(O)O)N[*:1])[*:2]].[O=C([C@H](COP(=O)(O)O)N[*:1])[*:2]].W.D.Q.N.S.S.E.Q.G}$$$$V2.0) the pIC50 [1, 5] was less than 4.52.
With `CC(C)C[C@H](NC(=O)[C@H](CC(N)=O)NC(=O)[C@H](CC(=O)O)NC(=O)[C@H](Cc1ccccc1)NC(=O)[C@H](C)NC(=O)[C@@H]1CCCN1C(=O)[C@H](CO)NC(=O)[C@H](Cc1ccccc1)NC(=O)[C@H](C)NC(=O)[C@@H]1CCCN1)C(=O)N[C@@H](Cc1ccc(OP(=O)(O)O)cc1)C(=O)N[C@@H](Cc1ccc(OP(=O)(O)O)cc1)C(=O)N[C@@H](Cc1c[nH]c2ccccc12)C(=O)N[C@@H](CC(=O)O)C(=O)N[C@@H](CCC(N)=O)C(=O)N[C@@H](CC(N)=O)C(=O)N[C@@H](CO)C(=O)N[C@@H](CO)C(=O)N[C@@H](CCC(=O)O)C(=O)N[C@@H](CCC(N)=O)C(=O)NCC(=O)O` [PAFSPAFDNL (pY) (pY) WDQNSSEQG, PAFSPAFDNL(pY)(pY)WDQNSSEQG] (HELM PEPTIDE1{P.A.F.S.P.A.F.D.N.L.[O=C([C@H](Cc1ccc(OP(=O)(O)O)cc1)N[*:1])[*:2]].[O=C([C@H](Cc1ccc(OP(=O)(O)O)cc1)N[*:1])[*:2]].W.D.Q.N.S.S.E.Q.G}$$$$V2.0) the “blocking of association of SHC PTB domain with pp145” value [2] was “blocks association”, the “direct binding to PTB domain, in words” value [3] was “able to bind directly” and the pIC50 ([1]; Apparent Inhibition (IC50)) was 7.30. The “block of PTB/c-erbB2 interaction at one peptide concentration, in words” value ([1]; FIG. 2C, 300 nM peptides (legend says 500 nM)) was “completely block”, the pIC50 ([1]; approximate IC50, inhibition of PTB domain/c-erbB2 binding) was roughly 7.30 and the “ability to block the PTB domain/c-erbB2 interaction after dephosphorylation” value ([1]; peptide dephosphorylated with tyrosine-specific phosphatases) was “unable to block”. The “peptide concentration at which substantial inhibition is shown” value ([1]; varying peptide concentrations, FIG. 2B lower blot) was 50 nM and the “binding to SH2 domain, in words” value [4] was “inability of the SH2 domain of SHC to bind”.
With `CC(C)C[C@H](NC(=O)[C@@H]1CCCN1C(=O)[C@H](CC(C)C)NC(=O)[C@@H](NC(=O)[C@@H]1CCCN1C(=O)[C@H](CC(=O)O)NC(=O)[C@H](CCC(=O)O)NC(=O)[C@H](CO)NC(=O)[C@H](Cc1ccc(OP(=O)(O)O)cc1)NC(=O)[C@H](CCCNC(=N)N)NC(=O)[C@H](CCC(N)=O)NC(=O)[C@H](CC(C)C)NC(=O)[C@@H]1CCCN1C(=O)[C@H](CO)NC(=O)[C@H](CC(C)C)NC(=O)[C@H](CC(=O)O)NC(=O)[C@H](Cc1c[nH]cn1)NC(=O)[C@@H]1CCCN1C(=O)[C@@H](N)CO)[C@@H](C)O)C(=O)O` [SPHDLSPLQR (pY) SEDPTLPL] (HELM PEPTIDE1{S.P.H.D.L.S.P.L.Q.R.[O=C([C@H](Cc1ccc(OP(=O)(O)O)cc1)N[*:1])[*:2]].S.E.D.P.T.L.P.L}$$$$V2.0) the pIC50 ([1]; Apparent Inhibition (IC50)) was less than 4.00.
Work on `CC(C)C[C@H](NC(=O)[C@@H]1CCCN1C(=O)[C@H](C)NC(=O)[C@@H](NC(=O)[C@H](Cc1ccc(OP(=O)(O)O)cc1)NC(=O)CNC(=O)[C@H](CC(=O)O)NC(=O)[C@@H](NC(=O)[C@H](CCC(=O)O)NC(=O)[C@@H]1CCCN1C(=O)[C@@H]1CCCN1C(=O)[C@H](CC(C)C)NC(=O)[C@@H]1CCCN1C(=O)[C@H](CC(C)C)NC(=O)[C@@H](N)[C@@H](C)O)[C@@H](C)O)C(C)C)C(=O)N[C@@H](C)C(=O)N[C@@H](CS)C(=O)N[C@@H](CO)C(=O)N1CCC[C@H]1C(=O)N[C@@H](CCC(N)=O)C(=O)O` [TLPLPPETDG (pY) VAPLACSPQ, TLPLPPETDG(pY)VAPLACSPQ] (HELM PEPTIDE1{T.L.P.L.P.P.E.T.D.G.[O=C([C@H](Cc1ccc(OP(=O)(O)O)cc1)N[*:1])[*:2]].V.A.P.L.A.C.S.P.Q}$$$$V2.0) yielded a pIC50 ([1]; Apparent Inhibition (IC50)) of less than 4.00.
For PAFSPAFDNLEEWDQNSSEQG, the pIC50 [1, 5] was less than 4.52.
